Molecular target: T1, Nav1.7 (or SCN9A) channel; HEK cells stably transfected with hSCN9A (Homo sapiens, UniProt Q15858)
T1 construct: expressed in transfected cells
Test: Nav1.7 block, PatchXpress 7000 automated whole-cell voltage clamp, estimated IC50 (EIC50)
Assay type: cell-based
Settings: PatchXpress platform; hSCN9A HEK cells held at V1/2 of inactivation; estimated IC50

T1 sequence (Q15858 whole entry): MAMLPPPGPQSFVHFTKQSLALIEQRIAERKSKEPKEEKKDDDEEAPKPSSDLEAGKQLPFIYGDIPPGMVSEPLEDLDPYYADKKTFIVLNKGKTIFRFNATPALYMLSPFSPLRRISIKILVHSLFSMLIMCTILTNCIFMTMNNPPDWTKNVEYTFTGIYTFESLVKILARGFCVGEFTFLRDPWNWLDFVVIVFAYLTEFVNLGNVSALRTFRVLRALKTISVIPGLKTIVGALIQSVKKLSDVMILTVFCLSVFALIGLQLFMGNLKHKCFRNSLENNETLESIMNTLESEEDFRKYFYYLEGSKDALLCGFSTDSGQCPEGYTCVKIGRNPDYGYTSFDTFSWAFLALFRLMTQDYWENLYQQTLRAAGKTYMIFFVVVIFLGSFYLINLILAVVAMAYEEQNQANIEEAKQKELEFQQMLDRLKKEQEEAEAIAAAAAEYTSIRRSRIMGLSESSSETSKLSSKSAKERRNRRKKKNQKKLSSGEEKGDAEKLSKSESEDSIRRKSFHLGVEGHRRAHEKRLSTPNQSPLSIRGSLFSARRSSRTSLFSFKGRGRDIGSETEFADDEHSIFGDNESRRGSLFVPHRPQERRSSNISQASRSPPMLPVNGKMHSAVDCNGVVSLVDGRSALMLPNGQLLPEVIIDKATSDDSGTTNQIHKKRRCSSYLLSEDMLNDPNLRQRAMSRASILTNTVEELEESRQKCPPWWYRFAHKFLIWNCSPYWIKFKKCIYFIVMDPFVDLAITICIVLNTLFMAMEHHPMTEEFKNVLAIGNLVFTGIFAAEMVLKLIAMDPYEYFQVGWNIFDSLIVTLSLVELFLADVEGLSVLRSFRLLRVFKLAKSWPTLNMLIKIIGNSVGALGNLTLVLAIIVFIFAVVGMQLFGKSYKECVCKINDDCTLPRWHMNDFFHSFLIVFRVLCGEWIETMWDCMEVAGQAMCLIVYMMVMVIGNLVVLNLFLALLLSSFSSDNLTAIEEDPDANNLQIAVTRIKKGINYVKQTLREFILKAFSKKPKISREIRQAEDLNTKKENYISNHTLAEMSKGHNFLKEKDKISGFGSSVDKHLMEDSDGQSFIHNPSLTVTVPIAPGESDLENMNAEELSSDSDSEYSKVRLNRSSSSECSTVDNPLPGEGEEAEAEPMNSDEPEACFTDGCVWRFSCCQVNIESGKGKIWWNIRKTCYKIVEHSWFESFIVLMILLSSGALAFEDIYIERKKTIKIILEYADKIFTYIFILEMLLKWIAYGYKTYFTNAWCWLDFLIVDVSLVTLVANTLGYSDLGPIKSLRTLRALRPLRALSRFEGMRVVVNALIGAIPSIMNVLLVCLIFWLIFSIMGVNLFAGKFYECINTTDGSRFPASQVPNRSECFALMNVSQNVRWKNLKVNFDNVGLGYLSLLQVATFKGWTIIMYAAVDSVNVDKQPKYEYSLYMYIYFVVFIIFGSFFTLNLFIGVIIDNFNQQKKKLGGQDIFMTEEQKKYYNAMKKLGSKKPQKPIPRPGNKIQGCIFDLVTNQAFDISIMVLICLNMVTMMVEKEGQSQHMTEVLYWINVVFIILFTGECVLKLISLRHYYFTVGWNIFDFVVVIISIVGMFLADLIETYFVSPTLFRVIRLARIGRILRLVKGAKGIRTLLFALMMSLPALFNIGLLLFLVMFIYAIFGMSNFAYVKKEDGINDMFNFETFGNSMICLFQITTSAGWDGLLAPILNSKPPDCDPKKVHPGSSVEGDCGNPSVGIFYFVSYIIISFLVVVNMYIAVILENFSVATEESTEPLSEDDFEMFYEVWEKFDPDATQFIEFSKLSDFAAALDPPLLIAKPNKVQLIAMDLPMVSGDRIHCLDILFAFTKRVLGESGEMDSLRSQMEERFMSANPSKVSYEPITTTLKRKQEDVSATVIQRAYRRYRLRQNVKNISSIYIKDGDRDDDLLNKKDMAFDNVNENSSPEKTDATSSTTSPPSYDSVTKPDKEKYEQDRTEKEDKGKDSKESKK

IC50 [nM] | Compound
410 | COCc1ccc(-c2cc(F)ccc2Oc2ccc(S(=O)(=O)Nc3nccs3)cc2C#N)cc1 [Example 163, 3-cyano-4-{[5-fluoro-4′-(methoxymethyl)biphenyl-2-yl]oxy}-N-1,3-thiazol-2-ylbenzenesulfonamide]
11500 | O=S(=O)(Nc1nccs1)c1ccc(Oc2cccc(Oc3ccccc3)c2)c(F)c1 [Example 126, 3-fluoro-4-(3-phenoxyphenoxy)-N-1,3-thiazol-2-ylbenzenesulfonamide]
17300 | CCc1nnc(C)n1-c1ccc(Oc2ccc(S(=O)(=O)Nc3nccs3)cc2F)cc1 [Example 132, 4-[4-(3-ethyl-5-methyl-4H-1,2,4-triazol-4-yl)phenoxy]-3-fluoro-N-1,3-thiazol-2-ylbenzenesulfonamide]
>3000 | N#Cc1cc(S(=O)(=O)Nc2ccccc2C(F)(F)F)ccc1Oc1ccccc1-c1ccccc1 [Example 111, 4-(biphenyl-2-yloxy)-3-cyano-N-[2-(trifluoromethyl)phenyl]benzenesulfonamide]
1120 | Cn1nccc1-c1cc(CO)ccc1Oc1ccc(S(=O)(=O)Nc2ncns2)cc1C#N [Example 91, 3-cyano-4-(4-(hydroxymethyl)-2-(1-methyl-1H-pyrazol-5-yl)phenoxy)-N-(1,2,4-thiadiazol-5-yl)benzenesulfonamide]
25700 | N#Cc1cc(S(=O)(=O)Nc2ncns2)ccc1Oc1ccc(CN2CCC2)cc1F [Example 61, 4-[4-(azetidin-1-ylmethyl)-2-fluorophenoxy]-3-cyano-N-1,2,4-thiadiazol-5-ylbenzenesulfonamide]
10 | Cn1nccc1-c1cc(Cl)ccc1Oc1ccc(S(=O)(=O)Nc2nccs2)cc1C#N [Example 170, 4-[4-Chloro-2-(1-methyl-1H-pyrazol-5-yl)phenoxy]-3-cyano-N-1,3-thiazol-2-ylbenzenesulfonamide]
9200 | Cc1cc(CN2CCCC2)cc(C)c1Oc1ccc(S(=O)(=O)Nc2nccs2)cc1F [Example 123, 4-[2,6-dimethyl-4-(pyrrolidin-1-ylmethyl)phenoxy]-3-fluoro-N-1,3-thiazol-2-ylbenzenesulfonamide]
1790 | Cc1c(Cl)ccc(Oc2ccc(S(=O)(=O)Nc3nccs3)cc2F)c1-c1nnco1 [Example 244, 4-(4-chloro-3-methyl-2-[1,3,4]oxadiazol-2-yl-phenoxy)-3-fluoro-N-thiazol-2-yl-benzenesulfonamide]
600 | Cc1ccc(Oc2ccc(C#N)cc2)c(Oc2ccc(S(=O)(=O)Nc3ncns3)cc2C#N)c1 [Example 78, 3-cyano-4-[2-(4-cyanophenoxy)-5-methylphenoxy]-N-1,2,4-thiadiazol-5-ylbenzenesulfonamide]
7480 | NC(=O)c1cc(S(=O)(=O)Nc2nccs2)ccc1Oc1ccc(-c2cc(C(F)(F)F)n[nH]2)cc1 [Example 203, 5-(N-thiazol-2-ylsulfamoyl)-2-(4-(3-(trifluoromethyl)-1H-pyrazol-5-yl)phenoxy)benzamide]
100 | N#Cc1cc(S(=O)(=O)Nc2ncns2)ccc1Oc1ccc(Cl)cc1-c1ccnn1CCO [Example 90, 4-(4-chloro-2-(1-(2-hydroxyethyl)-1H-pyrazol-5-yl)phenoxy)-3-cyano-N-(1,2,4-thiadiazol-5-yl)benzenesulfonamide]
540 | N#Cc1cc(S(=O)(=O)Nc2nccs2)ccc1Oc1ccc(F)cc1-c1ccnn1CC(F)(F)F [Example 175, 3-cyano-4-(4-fluoro-2-(1-(2,2,2-trifluoroethyl)-1H-pyrazol-5-yl)phenoxy)-N-(thiazol-2-yl)benzenesulfonamide]
16200 | Cc1cccc(-c2cc(F)ccc2F)c1Oc1ccc(S(=O)(=O)Nc2ncns2)cc1C#N [Example 31, 3-cyano-4-[(2′,5′-difluoro-3-methylbiphenyl-2-yl)oxy]-N-1,2,4-thiadiazol-5-ylbenzenesulfonamide]
810 | Cn1nccc1-c1cc(Cl)ccc1Oc1ccc(S(=O)(=O)Nc2cscn2)cc1F [Example 272, 4-[4-chloro-2-(2-methyl-2H-pyrazol-3-yl)-phenoxy]-3-fluoro-N-thiazol-4-yl-benzenesulfonamide]

Same assay, conditions: estimated IC50; hSCN9A HEK cells, PatchXpress platform; Examples 283-814

IC50 [nM] | Compound
8700 | CC(C)(C)n1ccc(Cc2cccc(Oc3ccc(S(=O)(=O)Nc4cscn4)cc3C#N)c2)n1 [Example 769, 4-{3-[(1-tert-butyl-1H-pyrazol-3-yl)methyl]phenoxy}-3-cyano-N-1,3-thiazol-4-ylbenzenesulfonamide]
>3000 | N#Cc1cc(S(=O)(=O)Nc2ccc(F)cn2)ccc1Oc1ccc(-n2ccnc2)cc1 [Example 569, 3-cyano-N-(5-fluoropyridin-2-yl)-4-[4-(1H-imidazol-1-yl)phenoxy]benzenesulfonamide]
190 | CC(C)c1cc(-n2ccc(C(F)(F)F)n2)ccc1Oc1ccc(S(=O)(=O)Nc2nccs2)cc1C#N [Example 352, 3-cyano-4-{2-isopropyl-4-[3-(trifluoromethyl)-1H-pyrazol-1-yl]phenoxy}-N-1,3-thiazol-2-ylbenzenesulfonamide]
2000 | N#Cc1cc(S(=O)(=O)Nc2nccs2)ccc1Oc1ccc(-c2ncccc2C(F)(F)F)cc1 [Example 457, 3-cyano-N-1,3-thiazol-2-yl-4-{4-[3-(trifluoromethyl)pyridin-2-yl]phenoxy}benzenesulfonamide]
2500 | Cc1nnc(NS(=O)(=O)c2ccc(Oc3ccc(Cl)cc3-c3ccnn3C)c(F)c2)s1 [Example 776, 4-[4-chloro-2-(1-methyl-1H-pyrazol-5-yl)phenoxy]-3-fluoro-N-(5-methyl-1,3,4-thiadiazol-2-yl)benzenesulfonamide]
>1000 | CC(C)(C)NC(=O)c1cnn(-c2ccc(Oc3ccc(S(=O)(=O)Nc4nccs4)cc3C#N)cc2)c1 [Example 378, N-tert-butyl-1-(4-{2-cyano-4-[(1,3-thiazol-2-ylamino)sulfonyl]phenoxy}phenyl)-1H-pyrazole-4-carboxamide]
340 | Cn1nc(C(F)(F)F)cc1-c1ccc(Oc2ccc(S(=O)(=O)Nc3nccs3)cc2C#N)cc1F [Example 329, 3-cyano-4-{3-fluoro-4-[1-methyl-3-(trifluoromethyl)-1H-pyrazol-5-yl]phenoxy}-N-1,3-thiazol-2-ylbenzenesulfonamide]
400 | N#Cc1cc(S(=O)(=O)Nc2nccs2)ccc1Oc1ccc(Br)cc1CN1CCCC1 [Example 355, 4-[4-bromo-2-(pyrrolidin-1-ylmethyl)phenoxy]-3-cyano-N-1,3-thiazol-2-ylbenzenesulfonamide]
45 | O=S(=O)(Nc1ncns1)c1cc(Cl)c(Oc2ccc(Cl)cc2C2CNC2)cc1F [Example 619, 4-(2-azetidin-3-yl-4-chlorophenoxy)-5-chloro-2-fluoro-N-1,2,4-thiadiazol-5-ylbenzenesulfonamide]
>1000 | Cn1nccc1-c1cccc(Oc2ccc(S(=O)(=O)Nc3nccs3)cc2C#N)c1 [Example 445, 3-cyano-4-[3-(1-methyl-1H-pyrazol-5-yl)phenoxy]-N-1,3-thiazol-2-ylbenzenesulfonamide]
150 | Cn1nccc1-c1cc(Cl)ccc1Oc1ncc(S(=O)(=O)Nc2nccs2)cc1C#N [Example 739, 6-[4-chloro-2-(1-methyl-1H-pyrazol-5-yl)phenoxy]-5-cyano-N-1,3-azol-2-ylpyridine-3-sulfonamide]
20 | CN1CCC(n2nccc2-c2cc(Cl)ccc2Oc2ccc(S(=O)(=O)Nc3ncns3)cc2C#N)CC1 [Example 725, 4-{4-chloro-2-[1-(1-methylpiperidin-4-yl)-1H-pyrazol-5-yl]phenoxy}-3-cyano-N-1,2,4-thiadiazol-5-ylbenzenesulfonamide]
22 | Cn1nccc1-c1ccc(Cl)cc1Oc1ccc(S(=O)(=O)Nc2nccs2)cc1C#N [Example 544, 4-[5-chloro-2-(1-methyl-1H-pyrazol-5-yl)phenoxy]-3-cyano-N-1,3-thiazol-2-ylbenzenesulfonamide]
1200 | Cn1nccc1-c1cc(Cl)ccc1Oc1ccc(S(=O)(=O)Nc2cscn2)c(F)c1 [Example 681, 4-[4-chloro-2-(1-methyl-1H-pyrazol-5-yl)phenoxy]-2-fluoro-N-1,3-thiazol-4-ylbenzenesulfonamide]
91 | O=S(=O)(Nc1cscn1)c1cc(Cl)c(Oc2ccc(C(F)(F)F)cc2-c2cn[nH]c2)cc1F [Example 659, 5-chloro-2-fluoro-4-[2-(1H-pyrazol-4-yl)-4-(trifluoromethyl)phenoxy]-N-1,3-thiazol-4-ylbenzenesulfonamide]
4.2 | O=S(=O)(Nc1ncns1)c1cc(F)c(Oc2cc(F)c(Cl)cc2-c2ccn[nH]2)cc1F [Example 762, 4-[4-chloro-5-fluoro-2-(1H-pyrazol-5-yl)phenoxy]-2,5-difluoro-N-1,2,4-thiadiazol-5-ylbenzenesulfonamide]

Compound | IC50 [nM]
4-[2-fluoro-4-(3-methoxy-1-methyl-1H-pyrazol-5-yl)phenoxy]-N-1,3-thiazol-2-ylbenzenesulfonamide [Example 435] | 2700

Same assay, conditions: estimated IC50; hSCN9A HEK cells, PatchXpress platform; Examples 815-1040

IC50 [nM] | Compound
820 | Cc1nccnc1-c1cc(Cl)ccc1Oc1ccc(S(=O)(=O)Nc2ncns2)cc1C#N [Example 1010, 4-[4-chloro-2-(3-methylpyrazin-2-yl)phenoxy]-3-cyano-N-1,2,4-thiadiazol-5-ylbenzenesulfonamide]
8.5 | N#Cc1cc(S(=O)(=O)Nc2ncns2)ccc1Oc1cc(Cl)c(Cl)cc1-c1ccnnc1 [Example 971, 3-cyano-4-(4,5-dichloro-2-pyridazin-4-ylphenoxy)-N-1,2,4-thiadiazol-5-ylbenzenesulfonamide]
11 | O=S(=O)(Nc1cscn1)c1cc(F)c(Oc2ccc(C(F)(F)F)cc2-c2ccnn2C2CNC2)cc1F [Example 841, 4-[2-(1-azetidin-3-yl-1H-pyrazol-5-yl)-4-(trifluoromethyl)phenoxy]-2,5-difluoro-N-1,3-thiazol-4-ylbenzenesulfonamide]
4.2 | O=C(c1cccc(-c2cc(Cl)ccc2Oc2cc(F)c(S(=O)(=O)Nc3ncns3)cc2F)c1)N1CCC1 [Example 855, 4-{[3′-(azetidin-1-ylcarbonyl)-5-chlorobiphenyl-2-yl]oxy}-2,5-difluoro-N-1,2,4-thiadiazol-5-ylbenzenesulfonamide]

Reference: patent publication US8541588B2, “Sulfonamide derivatives” (Pfizer Limited, priority 2009, dated 2013)
